Results taken from publication PMC8179358, “An explicitly designed paratope of amyloid-β prevents neuronal apoptosis in vitro and hippocampal damage in rat brain” (Chemical Science, 2020).
*1 amine or outer side, *2 acyl side, *3 side chain or, on linkers, in order; H or OH if unused. Where a SMILES comes first, the peptide text is derived from it. Bridges are numbered along the chain shown (N, C = ends). Roman numbers before positions name the chains, in order. [ ]: non-standard residue; d: D form. X1 = O=C(CCCCC(=O)[*:2])NCCCOCCOCCOCCCNC(=O)CCC(=O)[*:1]; NMeF = CN[C@@H](Cc1ccccc1)C(=O)O; NMeL = CN[C@@H](CC(C)C)C(=O)O; NMeV = CN[C@H](C(=O)O)C(C)C

How the values were obtained:
SH-SY5Y cells [1] = test: MTT assay, self-toxicity of SP1; assay type: cell-based, human; conditions: 0.5-10 μM, 24 h
Description: 1.3. Methods for in vitro cell-based experiments
The human neuroblastoma cell line SH-SY5Y was obtained from the National Centre for Cell Science (NCCS, Pune, India). The cells were grown in DMEM, and Ham’s F12 nutrient mixture (DMEM/F12; 1:1) supplemented with 10% fetal bovine serum (FBS; Gibco, USA), 50 U/ml penicillin, 100 μg/ml streptomycin and incubated in a humidified atmosphere of 5% CO2 at 37°C. All experiments were carried […]
Each experiment was performed
Methylthiazol tetrazolium (MTT) reduction assay was used to measure the viability of cells.10 The SH-SY5Y cells were seeded at a density of 1.5 × 10^4 cells/well in a 96 well plate. To assess self-toxicity, cells […]
period 20µl of MTT reagent (5mg/ml in DPBS) was added to each well and incubated in a humidified atmosphere of 5% CO2 at 37°C for 4h. Formazan crystals (purple) are formed by the metabolically active cells by cleaving the yellow tetrazolium salt. After the incubation period, the MTT solution was aspirated, and 150µL of dimethyl sulfoxide (DMSO) was added to each well to dissolve the formazan precipitate.

Aβ40 = target: T1, Aβ40 (Homo sapiens, UniProt P05067); test: Thioflavin T assay, inhibition of Aβ40 amyloid formation; assay type: biochemical; conditions: ThT assay; Aβ40 50 μM; 5-fold molar excess; PBS 50 mM pH 7.4, 3% DMSO, 37 °C
T1 construct: 15N labeled (a) Aβ40 (80 μM)
Description: First, we monitored the kinetics of the amyloid formation of Aβ40 (50 μM) by thioflavin T (ThT) assay (Fig. 2a and b). The Aβ40 peptide alone aggregated with time, with a growth saturation point around 72 h, as evident from the surge in ThT fluorescence intensity. […] Green-gold birefringence appears to be a standard result of Aβ40 aggregation under cross-polarized light post-staining with Congo red dye. Owing to amyloid formation, Aβ40 appears as green-gold birefringence (Fig. 2d) under cross-polarized light when stained with Congo red.
400μL of the sample was taken in a cuvette of 1mm path length. Three measurements were accumulated.
Spectra were recorded from 190nm to 260nm on a JASCO J-1500 instrument. […]
1.5 mg of commercially available Aβ40 peptide was taken and disaggregated by TFA (50μ L) and evaporated under nitrogen gas. […] To obtain precise results, two more replicate solutions of each portion were prepared (total number of samples for this experiment was 27), and fibrillization was monitored by various biophysical tools. […]
b. Thioflavin T Fluorescence Assay
A stock solution of Thioflavin T (ThT) of concentration 50μM in PBS (50mM, pH 7.4) was prepared and stored at 4 °C with the proper protection to prevent degradation from light. […] For fluorescence studies, 40μLof peptide sample was mixed with 200μL of ThT solution (50μM), and the total volume was made up to 400μL using PBS. […]

SH-SY5Y cells [2] = test: Hoechst 33258 staining of apoptotic cells; assay type: cell-based, human; conditions: Aβ40 10 μM, 24 h
Source text: Condensed or fragmented nuclear bodies characterize the distinctive nature of apoptotic cells. […] Dyshomeostasis of Ca^2+ is also responsible for the increased production of Aβ peptides, by which a degenerative feed-forward cycle is activated, resulting in accelerated apoptosis, synaptic dysfunction, and memory impairment.[49]

T1 sequence (P05067 672-711 limits assumed): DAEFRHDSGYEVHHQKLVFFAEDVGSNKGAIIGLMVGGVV

## CC(C)C[C@H](NC(=O)CNC(=O)CCC(=O)NCCCOCCOCCOCCCNC(=O)CCCCC(=O)NCC(=O)N(C)[C@@H](CC(C)C)C(=O)N[C@H](C(=O)N(C)[C@@H](Cc1ccccc1)C(=O)N[C@@H](Cc1ccccc1)C(=O)N[C@@H](C)C(N)=O)C(C)C)C(=O)N(C)[C@H](C(=O)N[C@@H](Cc1ccccc1)C(=O)N(C)[C@@H](Cc1ccccc1)C(=O)N[C@@H](C)C(N)=O)C(C)C [SP1] (I: GL[NMeV]F[NMeF]A-NH2 / II: G[NMeL]V[NMeF]FA-NH2; linker I:N-II:N via X1)
SH-SY5Y cells [1]
  cytotoxicity of SP1 alone: did not observe any discernible cytotoxicity even at the maximum concentrations (10 μM)
Aβ40
  inhibition of Aβ40 amyloid formation: ~66%

## Aβ40: commercially available Aβ40 peptide
SH-SY5Y cells [2]
  apoptotic cells, Aβ40 alone: A significant number of apoptotic cells were observed
